Test results: patent publication US10059717B2, “Urea compounds containing 3,4-dihydropyrimido[4,5-D]pyrimidin-2(1H)-one skeleton as protein kinase inhibitors” (KOREA INSTITUTE OF SCIENCE AND TECHNOLOGY, priority 2016, dated 2018)

Assays:
U937 (N-Ras WT) = assay: Proliferation inhibitory activity, U937; assay type: cell-based; conditions: Homo sapiens, U-937; U937 (N-Ras WT) cell line; read-out: Proliferation inhibitory efficacy (GI50, μM) U937 (N-Ras WT)
Protocol: (§1) GI50 values were calculated by measuring the proliferation inhibitory efficacy of the compounds of the present invention on mt-NRAS (G12D) Ba/F3, U937 (wt-NRAS) and OCI-AML3 (mt-NRAS) cell lines.

GCK = target: T1, GCK (Homo sapiens, UniProt Q12851); assay: GCK kinase inhibitory activity; assay type: biochemical; conditions: read-out: Kinase inhibitory efficacy, GI50 GCK
T1 sequence (Q12851 1-820): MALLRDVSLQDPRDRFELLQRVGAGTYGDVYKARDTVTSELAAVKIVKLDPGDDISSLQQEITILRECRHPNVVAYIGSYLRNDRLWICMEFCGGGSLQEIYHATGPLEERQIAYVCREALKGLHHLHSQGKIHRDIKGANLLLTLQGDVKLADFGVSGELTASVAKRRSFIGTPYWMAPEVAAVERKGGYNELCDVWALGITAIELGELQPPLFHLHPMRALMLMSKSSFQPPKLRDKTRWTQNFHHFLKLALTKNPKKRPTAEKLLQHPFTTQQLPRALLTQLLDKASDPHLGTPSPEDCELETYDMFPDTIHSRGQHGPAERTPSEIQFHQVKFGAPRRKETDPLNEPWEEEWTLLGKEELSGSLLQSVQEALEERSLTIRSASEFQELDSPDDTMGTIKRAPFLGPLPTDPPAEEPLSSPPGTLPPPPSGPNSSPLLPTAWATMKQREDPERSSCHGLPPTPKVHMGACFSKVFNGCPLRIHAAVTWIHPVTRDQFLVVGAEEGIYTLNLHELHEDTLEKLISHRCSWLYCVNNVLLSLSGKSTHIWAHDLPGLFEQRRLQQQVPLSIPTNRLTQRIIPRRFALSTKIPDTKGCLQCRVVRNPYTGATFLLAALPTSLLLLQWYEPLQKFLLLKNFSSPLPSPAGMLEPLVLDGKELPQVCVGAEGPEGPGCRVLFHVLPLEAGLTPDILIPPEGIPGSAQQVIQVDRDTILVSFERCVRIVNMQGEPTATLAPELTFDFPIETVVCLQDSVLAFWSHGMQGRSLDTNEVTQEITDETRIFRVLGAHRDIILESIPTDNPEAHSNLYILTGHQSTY
Protocol: (§2) GI50 values were calculated by measuring the inhibitory efficacy of the compounds of the present invention against both GCK and ACK1 kinases.

OCI-AML3 (N-Ras Q61L) = assay: Proliferation inhibitory activity, OCI-AML3; assay type: cell-based; conditions: Homo sapiens, OCI-AML-3; OCI-AML3 (N-Ras Q61L) cell line; read-out: Proliferation inhibitory efficacy (GI50, μM) OCI-AML3 (N-Ras Q61L)
Protocol: as §1
Accordingly, the compounds of the present invention are particularly effective as a therapeutic agent for acute myelogenous leukemia (AML).

Ba/F3 (N-Ras G12D) = assay: Proliferation inhibitory activity, Ba/F3; assay type: cell-based; conditions: Mus musculus, BaF3; Ba/F3 (N-Ras G12D) cell line; read-out: Proliferation inhibitory efficacy (GI50, μM) Ba/F3 (N-Ras G12D)
Protocol: as §1

ACK1 = ACK1 (Homo sapiens, UniProt Q07912); assay: ACK1 kinase inhibitory activity; assay type: biochemical; conditions: read-out: Kinase inhibitory efficacy, GI50 ACK1
Protocol: as §2

Chain of ACK1 (Q07912 whole entry): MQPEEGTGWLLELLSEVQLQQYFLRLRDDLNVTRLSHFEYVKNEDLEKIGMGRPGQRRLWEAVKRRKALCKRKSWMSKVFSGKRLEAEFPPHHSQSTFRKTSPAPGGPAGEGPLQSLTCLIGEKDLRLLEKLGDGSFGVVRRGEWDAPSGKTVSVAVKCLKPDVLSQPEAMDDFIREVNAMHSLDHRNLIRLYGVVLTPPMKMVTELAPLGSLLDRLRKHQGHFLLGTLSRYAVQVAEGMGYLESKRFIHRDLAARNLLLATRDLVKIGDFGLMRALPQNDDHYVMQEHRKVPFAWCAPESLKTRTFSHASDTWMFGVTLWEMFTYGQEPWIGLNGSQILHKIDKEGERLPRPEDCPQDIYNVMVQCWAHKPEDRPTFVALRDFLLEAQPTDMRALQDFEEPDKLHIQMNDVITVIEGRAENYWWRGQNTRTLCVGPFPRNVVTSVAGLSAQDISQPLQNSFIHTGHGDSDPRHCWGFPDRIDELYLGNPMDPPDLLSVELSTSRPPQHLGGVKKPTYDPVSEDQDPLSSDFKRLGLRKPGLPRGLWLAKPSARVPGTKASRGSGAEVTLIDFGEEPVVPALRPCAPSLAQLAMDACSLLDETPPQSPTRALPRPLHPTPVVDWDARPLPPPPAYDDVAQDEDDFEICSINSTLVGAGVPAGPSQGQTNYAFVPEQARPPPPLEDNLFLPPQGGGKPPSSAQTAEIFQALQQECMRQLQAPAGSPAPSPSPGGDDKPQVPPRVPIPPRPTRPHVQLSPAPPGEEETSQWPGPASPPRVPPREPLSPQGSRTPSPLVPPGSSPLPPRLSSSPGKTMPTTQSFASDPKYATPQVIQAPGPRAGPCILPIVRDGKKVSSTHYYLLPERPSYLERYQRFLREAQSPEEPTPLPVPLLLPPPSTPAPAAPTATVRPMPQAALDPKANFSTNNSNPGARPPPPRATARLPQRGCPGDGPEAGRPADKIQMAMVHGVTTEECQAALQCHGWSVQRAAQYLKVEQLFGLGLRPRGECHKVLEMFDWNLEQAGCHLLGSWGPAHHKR

Row | GI50 (U937 (N-Ras WT)) [µM] | GI50 (GCK) [nM] | GI50 (OCI-AML3 (N-Ras Q61L)) [µM] | GI50 (Ba/F3 (N-Ras G12D)) [µM] | GI50 (ACK1) [nM] | SMILES
1 | ≥ 5 | 30 to 100 | < 0.5 | < 0.5 | < 30 | COc1ccccc1NC(=O)Nc1ccc(C)c(N2Cc3cnc(Nc4ccc(C)nc4)nc3N(C)C2=O)c1 [Compound No. 1, 1-(2-methoxyphenyl)-3-(4-methyl-3-(1-methyl-7-((6-methylpyridin-3-yl)amino)-2-oxo-1,4-dihydropyrimido[4,5-d]pyrimidin-3(2H)-yl)phenyl)urea]
2 | ≥ 5 | 100 to 300 | 0.5 to 3 | 0.5 to 3 | < 30 | Cc1ccc(Nc2ncc3c(n2)N(C)C(=O)N(c2cc(NC(=O)Nc4ccccc4)ccc2C)C3)cn1 [Compound No. 2, 1-(4-methyl-3-(1-methyl-7-((6-methylpyridin-3-yl)amino)-2-oxo-1,4-dihydropyrimido[4,5-d]pyrimidin-3(2H)-yl)phenyl)-3-phenylurea]
3 | ≥ 5 | ≥ 300 | 0.5 to 3 | 3 to 5 | < 30 | Cc1ccc(Nc2ncc3c(n2)N(C)C(=O)N(c2cc(NC(=O)Nc4ccccc4OC(F)(F)F)ccc2C)C3)cn1 [Compound No. 3, 1-(4-methyl-3-(1-methyl-7-((6-methylpyridin-3-yl)amino)-2-oxo-1,4-dihydropyrimido[4,5-d]pyrimidin-3(2H)-yl)phenyl)-3-(2-(trifluoromethoxy)phenyl)urea]
4 | ≥ 5 | ≥ 300 | < 0.5 | 0.5 to 3 | < 30 | Cc1ccc(Nc2ncc3c(n2)N(C)C(=O)N(c2cc(NC(=O)Nc4ccccc4C(F)(F)F)ccc2C)C3)cn1 [Compound No. 4, 1-(4-methyl-3-(1-methyl-7-((6-methylpyridin-3-yl)amino)-2-oxo-1,4-dihydropyrimido[4,5-d]pyrimidin-3(2H)-yl)phenyl)-3-(2-(trifluoromethyl)phenyl)urea]
5 | ≥ 5 | 100 to 300 | 0.5 to 3 | 0.5 to 3 | < 30 | Cc1ccc(Nc2ncc3c(n2)N(C)C(=O)N(c2cc(NC(=O)Nc4ccccc4C)ccc2C)C3)cn1 [Compound No. 5, 1-(4-methyl-3-(1-methyl-7-((6-methylpyridin-3-yl)amino)-2-oxo-1,4-dihydropyrimido[4,5-d]pyrimidin-3(2H)-yl)phenyl)-3-(o-tolyl)urea]
6 | ≥ 5 | 100 to 300 | < 0.5 | 0.5 to 3 | < 30 | Cc1ccc(Nc2ncc3c(n2)N(C)C(=O)N(c2cc(NC(=O)Nc4cccc(Cl)c4Cl)ccc2C)C3)cn1 [Compound No. 6, 1-(2,3-dichlorophenyl)-3-(4-methyl-3-(1-methyl-7-((6-methylpyridin-3-yl)amino)-2-oxo-1,4-dihydropyrimido[4,5-d]pyrimidin-3(2H)-yl)phenyl)urea]
7 | ≥ 5 | 100 to 300 | 0.5 to 3 | < 0.5 | < 30 | Cc1ccc(Nc2ncc3c(n2)N(C)C(=O)N(c2cc(NC(=O)Nc4cccc(C(F)(F)F)c4)ccc2C)C3)cn1 [Compound No. 7, 1-(4-methyl-3-(1-methyl-7-((6-methylpyridin-3-yl)amino)-2-oxo-1,4-dihydropyrimido[4,5-d]pyrimidin-3(2H)-yl)phenyl)-3-(3-(trifluoromethyl)phenyl)urea]
8 | ≥ 5 | 30 to 100 | 0.5 to 3 | < 0.5 | < 30 | COc1cccc(NC(=O)Nc2ccc(C)c(N3Cc4cnc(Nc5ccc(C)nc5)nc4N(C)C3=O)c2)c1 [Compound No. 8, 1-(3-methoxyphenyl)-3-(4-methyl-3-(1-methyl-7-((6-methylpyridin-3-yl)amino)-2-oxo-1,4-dihydropyrimido[4,5-d]pyrimidin-3(2H)-yl)phenyl)urea]
9 | ≥ 5 | 100 to 300 | < 0.5 | 0.5 to 3 | 30 to 100 | Cc1ccc(Nc2ncc3c(n2)N(C)C(=O)N(c2cc(NC(=O)Nc4ccc(Cl)c(C(F)(F)F)c4)ccc2C)C3)cn1 [Compound No. 9, 1-(4-chloro-3-(trifluoromethyl)phenyl)-3-(4-methyl-3-(1-methyl-7-((6-methylpyridin-3-yl)amino)-2-oxo-1,4-dihydropyrimido[4,5-d]pyrimidin-3(2H)-yl)phenyl)urea]
10 | ≥ 5 | 30 to 100 | < 0.5 | < 0.5 | 30 to 100 | COc1ccc(NC(=O)Nc2ccc(C)c(N3Cc4cnc(Nc5ccc(C)nc5)nc4N(C)C3=O)c2)cc1 [Compound No. 10, 1-(4-methoxyphenyl)-3-(4-methyl-3-(1-methyl-7-((6-methylpyridin-3-yl)amino)-2-oxo-1,4-dihydropyrimido[4,5-d]pyrimidin-3(2H)-yl)phenyl)urea]
11 | 0.5 to 3 | < 30 | < 0.5 | < 0.5 | < 30 | CCN1CCN(c2ccc(Nc3ncc4c(n3)N(C)C(=O)N(c3cc(NC(=O)Nc5ccccc5OC)ccc3C)C4)cc2)CC1 [Compound No. 11, 1-(3-(7-((4-(4-ethylpiperazin-1-yl)phenyl)amino)-1-methyl-2-oxo-1,4-dihydropyrimido[4,5-d]pyrimidin-3(2H)-yl)-4-methylphenyl)-3-(2-methoxyphenyl)urea]
12 | ≥ 5 | < 30 | < 0.5 | < 0.5 | < 30 | COc1ccccc1NC(=O)Nc1ccc(C)c(N2Cc3cnc(Nc4cnn(C)c4)nc3N(C)C2=O)c1 [Compound No. 12, 1-(2-methoxyphenyl)-3-(4-methyl-3-(1-methyl-7-((1-methy-1H-pyrazol-4-yl)amino)-2-oxo-1,4-dihydropyrimido[4,5-d]pyrimidin-3(2H)-yl)phenyl)urea]
13 | ≥ 5 | < 30 | < 0.5 | < 0.5 | < 30 | COc1ccccc1NC(=O)Nc1ccc(C)c(N2Cc3cnc(Nc4ccc(N5CCN(C(C)=O)CC5)nc4)nc3N(C)C2=O)c1 [Compound No. 13, 1-(3-(7-((6-(4-acetylpiperazin-1-yl)pyridin-3-yl)amino)-1-methyl-2-oxo-1,4-dihydropyrimido[4,5-d]pyrimidin-3(2H)-yl)-4-methylphenyl)-3-(2-methoxyphenyl)urea]
14 | ≥ 5 | 100 to 300 | < 0.5 | < 0.5 | < 30 | CNC(=O)c1ccc(Nc2ncc3c(n2)N(C)C(=O)N(c2cc(NC(=O)Nc4ccccc4OC)ccc2C)C3)cn1 [Compound No. 15]
15 | ≥ 5 | 100 to 300 | < 0.5 | < 0.5 | < 30 | COc1ccccc1NC(=O)Nc1ccc(C)c(N2Cc3cnc(Nc4ccc(C(=O)NC5CC5)nc4)nc3N(C)C2=O)c1 [Compound No. 16, N-cyclopropyl-5-((6-(5-(3-(2-methoxyphenyl)ureido)-2-methylphenyl)-8-methyl-7-oxo-5,6,7,8-tetrahydropyrimido[4,5-d]pyrimidin-2-yl)amino)picolinamide]
16 | 0.5 to 3 | < 30 | < 0.5 | < 0.5 | < 30 | CCN1CCN(c2ccc(Nc3ncc4c(n3)N(C)C(=O)N(c3cc(NC(=O)Nc5ccccc5OC)ccc3C)C4)cn2)CC1 [Compound No. 17, 1-(3-(7-((6-(4-ethylpiperazin-1-yl)pyridin-3-yl)amino)-1-methyl-2-oxo-1,4-dihydropyrimido[4,5-d]pyrimidin-3(2H)-yl)-4-methylphenyl)-3-(2-methoxyphenyl)urea]
